From US8809352B2, “Sulfonamides as inhibitors of Bcl-2 family proteins for the treatments of cancer” (Novartis AG, priority 2009, dated 2014)

Target: BCL2 (Homo sapiens, UniProt P10415)
Assay: Biacore SPR solution inhibition assay of BCL-2 binding to peptide derivatized sensor surfaces
Details: SPR competition; 56 nM BCL2 pre-equilibrated with compound one hour; biotinylated BAK, BAD and NOXA peptide surfaces; 25° C.
Source text: The present method includes utility of a Surface plasmon resonance (SPR)-based biosensor (Biacore™ GE Healthcare, Uppsala, Sweden) to characterize BCL-2 inhibitors.
Biacore™ utilizes the phenomenon of surface plasmon resonance (SPR) to detect and measure binding interactions. In a typical Biacore experiment, one of the interacting molecules (ligand) is immobilized on a flexible dextran matrix while the interacting partner (analyte) is allowed to flow across that surface. A binding interaction results in an increase in mass on the sensor surface and a corresponding direct change in the refractive index of the medium in the vicinity of the sensor surface. Changes in refractive index or signal are recorded in resonance units (R.U.) Signal changes due to association and dissociation of complexes are monitored in a non-invasive manner, continuously and in real-time, the results of which are reported in the form of a sensorgram. The SPR assay is configured to examine solution inhibition of BCL-2 binding to peptide derivatized sensor surfaces to generate […] values as a measure of inhibitor potency.
Biacore™ A100 (GE Healthcare, Uppsala, Sweden) was used to conduct all experiments reported herein. Sensor surface preparation and all interaction analyses experiments were performed at 25° C. Reagents were purchased from GE Healthcare. Running buffer containing 10 mM Hepes, pH7.4, 150 mM sodium chloride, 1.25 mM Dithiothreitol, 3% Dimethyl sulfoxide and 0.05% polysorbate 20 were utilized throughout all analyses.
Biotinylated BAK, BAD and NOXA peptides were diluted to 10 nM in running buffer and captured onto a sensor surface pre-derivatized with streptavidin (sensor chip SA) to peptide surface densities in the range 50-100 R.U. Peptide captured surfaces were blocked with 500 μM PEO2-Biotin.
Interaction analyses were performed by first equilibrating each sample within a 6 point three fold compound dilution series in the range 16 μM to 0.004 nM with 56 nM BCL2 for one hour during instrument start-up procedures. Protein compound mixtures were then injected over each peptide surface in parallel for 60 seconds at a flow-rate of 30 μL/min. 56 nM BCL2 control samples were also prepared and run at regular intervals during the assay. Surface regeneration was performed at the end of each analysis cycle by two 30 second injections of 10 mM Glycine, pH 2.5, 1M Sodium Chloride, 0.05% polysorbate 20. Samples and control compound samples were run in duplicate and controls are also run at regular intervals during the assay to monitor surface and assay performance.
Data analyses are carried out using Biacore™ A100 evaluation software v1.1 to validate assay quality. Binding level report points were used relative to BCL2 control samples to calculate % inhibition values for each compound protein mixture.

Sequence of BCL2 (P10415 whole entry): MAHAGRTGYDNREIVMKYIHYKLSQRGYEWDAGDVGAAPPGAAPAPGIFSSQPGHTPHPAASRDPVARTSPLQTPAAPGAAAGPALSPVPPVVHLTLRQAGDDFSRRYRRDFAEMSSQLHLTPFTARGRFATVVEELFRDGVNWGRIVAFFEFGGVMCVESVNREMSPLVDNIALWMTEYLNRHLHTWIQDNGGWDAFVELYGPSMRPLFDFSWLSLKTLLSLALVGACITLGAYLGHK

C[C@H]1CC(N2CCc3c(ncnc3NS(=O)(=O)c3ccc(N[C@H](CCN(C)C)CSc4ccccc4)c([N+](=O)[O-])c3)C2)CCN1Cc1ccccc1-c1ccc(Cl)cc1 (mixture of isomers) [Example 3]
IC50: 62 nM

C[C@H]1CC(N2CCc3c(ncnc3NS(=O)(=O)c3ccc(N[C@H](CCN(C)C)CSc4ccccc4)c(S(=O)(=O)C(F)(F)F)c3)C2)CCN1Cc1ccccc1-c1ccc(Cl)cc1 (mixture of isomers) [Example 4, N-(7-((2S)-1-((4′-chlorobiphenyl-2-yl)methyl)-2-methylpiperidin-4-yl)-5,6,7,8-tetrahydropyrido[3,4-d]pyrimidin-4-yl)-4-((R)-4-(dimethylamino)-1-(phenylthio)butan-2-ylamino)-3-(trifluoromethylsulfonyl)benzenesulfonamide]
IC50: 22 nM

COC1(Cc2ccccc2-c2ccc(Cl)cc2)CCC(N2CCc3c(ncnc3NS(=O)(=O)c3ccc(N[C@H](CCN(C)C)CSc4ccccc4)c(S(=O)(=O)C(F)(F)F)c3)C2)CC1 (mixture of isomers) [Example 60, (R)-N-(7-(4-((4′-chlorobiphenyl-2-yl)methyl)-4-methoxycyclohexyl)-5,6,7,8-tetrahydropyrido[3,4-d]pyrimidin-4-yl)-4-(4-(dimethylamino)-1-(phenylthio)butan-2-ylamino)-3-(trifluoromethylsulfonyl)benzenesulfonamide]
IC50: 63 nM

CN(C)CC[C@H](CSc1ccccc1)Nc1ccc(S(=O)(=O)Nc2ncnc3c2CCN(C2CCC(O)(Cc4ccccc4-c4ccc(Cl)cc4)CC2)C3)cc1S(=O)(=O)C(F)(F)F (mixture of isomers) [Example 64, (R)-N-(7-(4-((4′-chlorobiphenyl-2-yl)methyl)-4-hydroxycyclohexyl)-5,6,7,8-tetrahydropyrido[3,4-d]pyrimidin-4-yl)-4-(4-(dimethylamino)-1-(phenylthio)butan-2-ylamino)-3-(trifluoromethylsulfonyl)benzenesulfonamide]
IC50: 70 nM

CC1Cc2c(ncnc2NS(=O)(=O)c2ccc(N[C@H](CCN(C)C)CSc3ccccc3)c(S(=O)(=O)C(F)(F)F)c2)CN1C1CCN(Cc2ccccc2-c2ccc(Cl)cc2)CC1 (stereo in doubt) [Example 48, N—[(S)-7-[1-(4′-Chloro-biphenyl-2-ylmethyl)-piperidin-4-yl]-6-methyl-5,6,7,8-tetrahydro-pyrido[3,4-d]pyrimidin-4-yl]-4-((R)-3-dimethylamino-1-phenylsulfanylmethyl-propylamino)-3 trifluoromethanesulfonyl-benzene sulfonamide]
IC50: 353 nM

CC1Cc2c(ncnc2NS(=O)(=O)c2ccc(N[C@H](CCN(C)C)CSc3ccccc3)c(S(=O)(=O)C(F)(F)F)c2)CN1C1CCN(Cc2ccccc2-c2ccc(Cl)cc2)CC1 (stereo in doubt) [Example 49, N-{(R)-7-[1-(4′-Chloro-biphenyl-2-ylmethyl)-piperidin-4-yl]-6-methyl-5,6,7,8-tetrahydro-pyrido[3,4-d]pyrimidin-4-yl}-4-((R)-3-dimethylamino-1-phenylsulfanylmethyl-propylamino)-3-trifluoromethanesulfonyl-benzenesulfonamide]
IC50: 33 nM

CN(C)CC[C@H](CSc1ccccc1)Nc1ccc(S(=O)(=O)Nc2ncnc3c2CCN(C2CCN(Cc4ccccc4-c4ccc(Cl)cc4)CC2)C3)cc1[N+](=O)[O-] [Example 1, N-{7-[1-(4′-Chloro-biphenyl-2-ylmethyl)-piperidin-4-yl]-5,6,7,8-tetrahydro-pyrido[3,4-d]pyrimidin-4-yl}-4-((R)-3-dimethylamino-1-phenylsulfanylmethyl-propylamino)-3-nitro-benzenesulfonamide]
IC50: 100 nM

CN(C)CC[C@H](CSc1ccccc1)Nc1ccc(S(=O)(=O)Nc2ncnc3c2CCN(C2CCN(CC4=C(c5ccc(Cl)cc5)CCC(C)(C)C4)CC2)C3)cc1[N+](=O)[O-] [Example 2]
IC50: 31 nM
